Patent EP0726764B1, “MULTILAMELLAR LIPOSOMAL ARACHIDONIC ACID METABOLITE FORMULATIONS” (THE LIPOSOME COMPANY, INC., priority 1993, dated 1995)
Like-named read-outs stand apart in the source and are kept apart here.

Key:
[1] = cited from earlier work
adjuvant arthritis = test: Rat adjuvant arthritis (complete Freund's adjuvant); assay type: in vivo, Male Lewis rats
[2] = system: acute myocardial infarction; conditions: slow intracoronary infusion together with intracoronary streptokinase; cited from earlier work
infarct size = conditions: continuous arterial infusion over a six-hour period, free (non-liposomal); cited from earlier work
restenosis = conditions: intracoronary infusion over a 24-hour period; cited from earlier work
LPS-induced death = test: Rat endotoxemia model, LPS-induced mortality; assay type: in vivo, Male Sprague-Dawley rats; conditions: 50 µg/kg LPS i.v. at time 0, PGE1 40 µg/kg i.v. simultaneously
[3] = system: leukocyte extravasation from the peripheral vasculature to sites of inflammation; test: Rat subcutaneous air pouch, fMLP-induced inflammation; assay type: in vivo, Male Sprague-Dawley rats; conditions: visual examination of post-stimulation air pouch lining
Method: • Figure 1. Release of PGE1 from MLVs. The release of prostaglandin E1 (PGE1) from multilamellar vesicles (MLVs) comprising egg phosphatidylcholine (EPC) or dipalmitoyl phosphatidylcholine (DPPC) formed in 50 mM citrate buffer, pH 4.5, and then incubated at room temperature in pH 7.1 buffer for the indicated amount of time, is set forth. X-axis: time (minutes); y-axis: percent PGE1 retained in pelleted liposomes. • Figure 2. Rat Air Pouch Studies. Liposomal PGE1 formulations inhibit the extravasation of leukocytes from the vasculature to the rat air pouch. Subcutaneous air pouches were formed in male Sprague-Dawley rats. fMLP (2.15 µg) was injected directly into the air pouch at time 0, and free or liposomal PGE1 was simultaneously injected intravenously. After six hours, the air pouch exudate was collected and the air pouch total cell population determined. For each treatment group, n=4. […] After six hours, the air pouch exudate was collected, and the air pouch total cell population determined. […] After six hours, the air pouch exudate was collected, and the air pouch total cell population determined. […] After six and 24 hours, the air pouch exudates were collected, and the air pouch total cell populations were determined. […]

Structure (SMILES) | bioavailability ([1]; free stable prostaglandin analog) | inhibition of arthritis progression, treatment begun 10 days post-adjuvant (adjuvant arthritis; 10 µg/kg beginning at day 10, every second day) | progression of adjuvant arthritis (weight gain, joint edema) (adjuvant arthritis; 10 µg/kg, injections every second day) | subjective scoring of general health and mobility (adjuvant arthritis; 10 µg/kg, scored at day 14) | clinical results versus intracoronary streptokinase alone [2] | reducing the infarct size (infarct size) | reduction of the rate of restenosis six months after angioplasty versus untreated control group (restenosis) | LPS induced mortality (LPS-induced death) | vascular reactivity and number of leukocytes invading the pouch lining [3] | bioavailability ([1]; free PGE1)
CCCCCC(C)(O)/C=C/[C@H]1[C@H](O)CC(=O)[C@@H]1CCCCCCC(=O)O (some centres unmarked) [15-methyl-PGE1] | ≥ 8 h | – | – | – | – | – | – | – | – | –
CCCCC[C@H](O)/C=C/[C@H]1[C@H](O)CC(=O)[C@@H]1CCCCCCC(=O)O [free PGE1, prostaglandin E1] | – | still receive protection horn disease progression, although the inhibition of arthritis progression was not as profound | attenuated the progression of adjuvant arthritis | maintenance of general health and mobility | positive clinical results | scant effect | ~50% | increased both the rate and magnitude of LPS induced mortality | reduction in vascular reactivity and a concurrent reduction in the number of leukocytes invading the pouch lining | < 0.25 h
CCCCC[C@H](O)/C=C/[C@@H]1[C@H]2C/C(=C/CCCC(=O)O)O[C@H]2C[C@H]1O [PGI2] | – | – | – | – | – | scant effect | – | – | – | –
